In paper PMC10712729, “A Phase I Trial of the Dual MET Kinase/OCT-2 Inhibitor OMO-1 in Metastatic Solid Malignancies Including MET Exon 14 Mutated Lung Cancer” (The Oncologist, 2023):

Key:
[1] = tested on: EGFR mutated NSCLC with acquired MET amplification; type: in vivo, human; details: one patient, 200 mg BID with EGFR TKI; led to interruption
Description: Module 2 (OMO-1 in combination with EGFR TKI) investigated the preliminary efficacy of OMO-1 in patients with activating EGFR mutated NSCLC and an acquired MET amplification after EGFR TKI treatment.

[2] = tested on: MET-activated tumor models; details: preclinical ref 21; cited from earlier work
phosphorylated MET = target: T1, phosphorylated MET (Homo sapiens, UniProt P08581, DEL963-1009); test: Paired biopsy analysis, total and phosphorylated MET by immunohistochemistry; type: in vivo; details: one patient, NSCLC with MET exon 14 skipping mutation, 200 mg BID
T1 construct: from tissue; host or cells: paired tumour biopsies (baseline and on-treatment) of an NSCLC patient
Description: Analysis was performed using PKSolver to define Cmax, trough concentration (Ctrough), AUC∞, AUC0-last, Vd, clearance, elimination half-life (t½), and Tmax of OMO-1.[24] In the paired biopsy analysis, expression of total MET and phosphorylated MET was performed by immunohistochemistry.

[3] = tested on: organic cation transporter 2 (OCT-2); set-up: method as in PMID 14576340; details: cited from earlier work
[4] = Phase I safety and tolerability of OMO-1 monotherapy, Module 1 Part A dose escalation (drug-related TEAEs, DLTs, RP2D)
Description: This study was part of a modular, first-in-patient, openlabel multicenter study of OMO-1, administered orally, mono-therapy, and in combination with EGFR-TKI, in patients with locally advanced, unresectable, or metastatic solid malignancies (study protocol can be). […] Module 1 (OMO-1 monotherapy) consisted of Part A (dose escalation) and Part B (expansion cohorts). Part A assessed the safety and tolerability of ascending doses of OMO-1 given as monotherapy in unselected patients with locally advanced, unresectable, or metastatic malignancies and determined the recommended phase 2 dose (RP2D). Part B assessed the preliminary efficacy of the RP2D of OMO-1 in patients with METex14-positive NSCLC (cohort 1) and patients with MET amplified NSCLC or patients with other MET positive solid tumors, either METex14 or MET amplification (MET basket; cohort 2). The MET status of the tumor was assessed locally by site-specific guidelines. For MET exon 14 skipping mutations next generation sequencing (NGS) was used and for MET amplifications either NGS or fluorescence in situ hybridization (Supplementary 1). Prior treatment with a MET inhibitor was an exclusion criterion.
OMO-1 was administered orally, twice daily (BID) with a minimal interval of 4-5 h with food in a continuous 21 day/cycle regimen until clinical progression or emergence of significant toxicity. The starting dose was 100 mg BID. The dose was escalated sequentially in cohorts of at least 3 patients using a standard 3 + 3 dose escalation design. […] During the monotherapy dose escalation Module 1 Part A, blood samples were collected for PK analysis throughout the study as per protocol (S1).
The dose-limiting toxicity (DLT) evaluation period was within the first cycle of treatment; although all events beyond this point were also reviewed at the time of dose escalation to ensure an OLED was chosen as RP2D.
Safety analyses were descriptive. With respect to primary objectives and endpoints, no specific hypotheses were tested statistically. The primary focus was on determining the safety profile and RP2D, and the identification of a range of biologically active doses and PK of OMO-1 in patients with cancer. Safety, PK, and PD biomarker data were reviewed on an ongoing basis in line with the cohort progression criteria by the Safety Review Committee (SRC).

For `FC(F)(c1ccc2ncccc2c1)c1nnc2ccc(-c3ccncc3)nn12` [OMO-1], the “serum Cystatin C increase from baseline” value [1] is listed as over 1.5 fold, the tumor growth [2] is listed as “complete inhibition of tumor growth” and the “phosphorylated MET in on-treatment biopsy” value (phosphorylated MET) is listed as “near-complete inhibition”. The “total MET levels in on-treatment biopsy” value (phosphorylated MET) was “without affecting total MET levels”, the “inhibition of OCT-2” value [3] was “potent inhibitor” and the “increased blood creatinine, drug-related TEAE” value ([4]; 100 mg BID cohort) was “no events”. For the same compound, the “Fatigue, proportion of patients” value ([4]; 100 mg BID cohort, 1 patient) was 20.0%, the “Decreased appetite, Drug-related TEAEs, All grades” value (“Decreased appetite” below) ([4]; 100 mg BID n = 5) was 1 (20%) n (%) and the “Dizziness, Drug-related TEAEs, All grades” value (“Dizziness … All grades” for short) ([4]; 100 mg BID n = 5) was 1 (20%) n (%). The “Fatigue, Drug-related TEAEs, All grades” value ([4]; 100 mg BID n = 5) was 1 (20%) n (%), the “Headache, Drug-related TEAEs, All grades” value ([4]; 100 mg BID n = 5) was 1 (20%) n (%) and the “Nausea, Drug-related TEAEs, All grades” value ([4]; 100 mg BID n = 5) was 2 (40%) n (%). The “Nausea, Drug-related TEAEs, Grade ≥3” value ([4]; 100 mg BID n = 5) was 1 (20%) n (%), the “Nausea, Drug-related TEAEs, SAE” value ([4]; 100 mg BID n = 5) was 1 (20%) n (%) and the “Total n with AE, Drug-related TEAEs, All grades” value (“Total n with AE … All grades” for short) ([4]; 100 mg BID n = 5) was 5 (100%) n (%). For the same compound, the “Total n with AE, Drug-related TEAEs, Grade ≥3” value ([4]; 100 mg BID n = 5) was 2 (40%) n (%), the “Total n with AE, Drug-related TEAEs, SAE” value ([4]; 100 mg BID n = 5) was 2 (40%) n (%) and the “Vomiting, Drug-related TEAEs, All grades” value ([4]; 100 mg BID n = 5) was 1 (20%) n (%). The “Vomiting, Drug-related TEAEs, Grade ≥3” value ([4]; 100 mg BID n = 5) was 1 (20%) n (%), the “Vomiting, Drug-related TEAEs, SAE” value ([4]; 100 mg BID n = 5) was 1 (20%) n (%) and the “Anemia, Drug-related TEAEs, All grades” value ([4]; 200 mg BID n = 4) was 2 (50%) n (%). For the same compound, the “Anemia, Drug-related TEAEs, Grade ≥3” value ([4]; 200 mg BID n = 4) was 1 (25%) n (%), the “Blood creatinine ↑, Drug-related TEAEs, All grades” value ([4]; 200 mg BID n = 4) was 3 (75%) n (%) and the “Chills/ influenza like symptoms, Drug-related TEAEs, All grades” value ([4]; 200 mg BID n = 4) was 1 (25%) n (%). For the same compound, the “Chills/ influenza like symptoms, Drug-related TEAEs, SAE” value ([4]; 200 mg BID n = 4) was 1 (25%) n (%), the “Decreased appetite” value ([4]; 200 mg BID n = 4) was 1 (25%) n (%) and the “Diarrhoea, Drug-related TEAEs, All grades” value ([4]; 200 mg BID n = 4) was 2 (50%) n (%). For the same compound, the “Dizziness … All grades” value ([4]; 200 mg BID n = 4) was 1 (25%) n (%), the “Fatigue, Drug-related TEAEs, All grades” value ([4]; 200 mg BID n = 4) was 1 (25%) n (%) and the “Headache, Drug-related TEAEs, All grades” value ([4]; 200 mg BID n = 4) was 3 (75%) n (%). The “Nausea, Drug-related TEAEs, All grades” value ([4]; 200 mg BID n = 4) was 3 (75%) n (%), the “Total n with AE … All grades” value ([4]; 200 mg BID n = 4) was 4 (100%) n (%) and the “Total n with AE, Drug-related TEAEs, Grade ≥3” value ([4]; 200 mg BID n = 4) was 1 (25%) n (%). For the same compound, the “Total n with AE, Drug-related TEAEs, SAE” value ([4]; 200 mg BID n = 4) was 1 (25%) n (%), the “Vomiting, Drug-related TEAEs, All grades” value ([4]; 200 mg BID n = 4) was 2 (50%) n (%) and the “Vomiting, Drug-related TEAEs, Grade ≥3” value ([4]; 200 mg BID n = 4) was 1 (25%) n (%). The “diarrhea, all grades” value ([4]; 250 mg BD) was 14%, the “nausea, all grades” value ([4]; 250 mg BD) was 57% and the “vomiting, all grades” value ([4]; 250 mg BD) was 43%. For the same compound, the “Anemia, Drug-related TEAEs, All grades” value ([4]; 250 mg BID n = 7) was 1 (14%) n (%), the “Blood creatinine ↑, Drug-related TEAEs, All grades” value ([4]; 250 mg BID n = 7) was 3 (43%) n (%) and the “Blood creatinine ↑, Drug-related TEAEs, Grade ≥3” value ([4]; 250 mg BID n = 7) was 1 (14%) n (%). For the same compound, the “Decreased appetite” value ([4]; 250 mg BID n = 7) was 1 (14%) n (%), the “Diarrhoea, Drug-related TEAEs, All grades” value ([4]; 250 mg BID n = 7) was 1 (14%) n (%) and the “Dizziness … All grades” value ([4]; 250 mg BID n = 7) was 1 (14%) n (%). For the same compound, the “Fatigue, Drug-related TEAEs, All grades” value ([4]; 250 mg BID n = 7) was 3 (43%) n (%), the “Fatigue, Drug-related TEAEs, Grade ≥3” value ([4]; 250 mg BID n = 7) was 1 (14%) n (%) and the “Nausea, Drug-related TEAEs, All grades” value ([4]; 250 mg BID n = 7) was 4 (57%) n (%). The “Nausea, Drug-related TEAEs, SAE” value ([4]; 250 mg BID n = 7) was 1 (14%) n (%), the “Tachycardia, Drug-related TEAEs, All grades” value ([4]; 250 mg BID n = 7) was 1 (14%) n (%) and the “Total n with AE … All grades” value ([4]; 250 mg BID n = 7) was 7 (100%) n (%). The “Total n with AE, Drug-related TEAEs, SAE” value ([4]; 250 mg BID n = 7) was 1 (14%) n (%), the “Vomiting, Drug-related TEAEs, All grades” value ([4]; 250 mg BID n = 7) was 3 (43%) n (%) and the “patients discontinued due to related toxicity” value ([4]; 350 mg BID and 400 mg BID cohort) was 4/8. For the same compound, the “increased blood creatinine, drug-related TEAE” value ([4]; 350 mg BID cohort) was “no events”, the “Chills/ influenza like symptoms, Drug-related TEAEs, All grades” value ([4]; 350 mg BID n = 5) was 1 (20%) n (%) and the “Decreased appetite” value ([4]; 350 mg BID n = 5) was 1 (20%) n (%). For the same compound, the “Dizziness … All grades” value ([4]; 350 mg BID n = 5) was 1 (20%) n (%), the “Fatigue, Drug-related TEAEs, All grades” value ([4]; 350 mg BID n = 5) was 3 (60%) n (%) and the “Headache, Drug-related TEAEs, All grades” value ([4]; 350 mg BID n = 5) was 1 (20%) n (%). For the same compound, the “Nausea, Drug-related TEAEs, All grades” value ([4]; 350 mg BID n = 5) was 1 (20%) n (%), the “Tachycardia, Drug-related TEAEs, All grades” value ([4]; 350 mg BID n = 5) was 1 (20%) n (%) and the “Total n with AE … All grades” value ([4]; 350 mg BID n = 5) was 4 (80%) n (%).
